{"source": "patent US11865095B2", "about": "“Combination drug substance of polyamine transport inhibitor and DFMO” (Aminex Therapeutics, Inc., priority 2020, dated 2024)", "key": {"[1]": {"experiment": "water solubility", "format": "physicochemical"}, "[2]": {"experiment": "in vivo", "settings": "BALB/c, mouse, tumor, subcutaneous, 2.5 mg/kg"}, "[3]": {"experiment": "First-in-human clinical trial NCT03536728 Part 1: plasma pharmacokinetics and tolerability of oral AMXT 1501 dicaprate and DFMO"}, "[4]": {"settings": "mouse, in vivo"}, "[5]": {"experiment": "clinical", "settings": "human, in vivo, po"}, "[6]": {"test_system": "cancer cells", "experiment": "in vitro EC50 against cancer cells", "format": "cell-based"}, "[7]": {"experiment": "bioavailability / Biopharmaceutics Classification System class"}}, "note": "Read-outs that look alike come from different tables or passages of the source.", "data": [{"smiles": "NCCCC(N)(C(=O)O)C(F)F", "note": "(centres unmarked) [DFMO, difluoromethylornithine]", "values": [{"measurement": "water solubility", "setting": "[1]", "value": "high"}]}, {"smiles": "CCCCCCCCCCCCCCCC(=O)NCCCC[C@@H](N)C(=O)NCCCNCCCCNCCCN", "note": "[AMXT 1501, D-lys(palmitoyl)-spermine]", "values": [{"measurement": "Kp", "setting": "[2]", "value": 14}, {"measurement": "duration of plasma levels", "setting": "[3]; Cohort 5, over the 24-hour dosing time increment", "value": "sustained over the 24-hour dosing time increment"}, {"measurement": "adverse effects observed in patients", "setting": "[3]; Part 1 patients, mainly gastrointestinal (nausea and diarrhea)", "value": "modest Grades 1 and 2 adverse effects"}, {"measurement": "Cmax", "setting": "[3]; human, in vivo", "value": "< 1000", "unit": "ng/mL"}, {"measurement": "mean AMXT 1501 exposure versus dose", "setting": "[3]; single or repeat PO dosing, dose levels of 160 mg AMXT 1501 and higher", "value": "increased in a dose-dependent manner"}, {"measurement": "AMXT 1501 tumor AUC", "setting": "[4]", "value": "152,000 hr*ng/mL"}, {"measurement": "Cmax", "setting": "[5]", "value": 794, "unit": "ng/mL"}, {"measurement": "EC50", "setting": "[6]; equivalent of 50 nM, read-out: plasma concentration equivalent to in vitro EC50", "value": 0.028, "unit": "µg/mL"}, {"measurement": "EC50", "setting": "[6]; read-out: in vitro EC50 against cancer cells", "value": 50, "unit": "nM"}]}, {"smiles": "CCCCCCCCCC(=O)O.CCCCCCCCCC(=O)O.CCCCCCCCCCCCCCCC(=O)NCCCC[C@@H](N)C(=O)NCCCNCCCCNCCCN", "note": "[AMXT 1501 dicaprate]", "values": [{"measurement": "bioavailability", "setting": "[7]", "value": "low"}]}]}
